Consider 13 compounds from PubChem BioAssay (NCI).

Each structure is given as a SMILES string.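 Interpolation was linear, between the two tested concentrations surrounding the appropriate level; five concentrations were tested over 48 hours in 96-well plates. TGI is the concentration that stops growth completely.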 Bounds are passed on as bounds.

Among the test systems are SF-539 CNS; HCT-15 colon; SK-MEL-5 melanoma; MCF7 breast; OVCAR-3 ovarian; LOX IMVI melanoma; SNB-19 CNS; SR leukemia; EKVX NSCLC; MDA-N.
Common to all, as to assay: NCI-60 cell line screen, 48 h

As to `O=C1CC(c2cccc([N+](=O)[O-])c2)C2(C(=O)NC(=S)NC2=O)C(c2cccc([N+](=O)[O-])c2)C1` (stereo not given), the TGI is above 100 µM in the assay on SF-539 CNS; above 100 µM with HCT-15 colon; above 100 µM in the assay on SK-MEL-5 melanoma; 50.9 µM in the assay with MCF7 breast; above 100 µM in the assay with OVCAR-3 ovarian; 34 µM in the assay with LOX IMVI melanoma. Also, the TGI in the assay on SNB-19 CNS was 58.8 µM; in the assay with SR leukemia, above 100 µM; in the assay with EKVX NSCLC it was 74.1 µM; with MDA-N, above 100 µM.

Consider `C=CCN1C(=O)C[C@H](Cc2ccccc2)NC(=O)C[C@H](Cc2ccccc2)N(CC=C)C(=O)C[C@H](Cc2ccccc2)NC(=O)C[C@@H]1Cc1ccccc1`, for which the TGI in the assay on SF-539 CNS, with HCT-15 colon, in the assay with SK-MEL-5 melanoma, in the assay on MCF7 breast, with OVCAR-3 ovarian and in the assay with LOX IMVI melanoma was above 100 µM throughout. Also, the TGI in the assay on SNB-19 CNS was above 100 µM; with SR leukemia it was above 100 µM; with EKVX NSCLC, 9.25 µM; with MDA-N, above 100 µM.

Turning to `Cc1c2oc(=O)c(C#N)cc2c2ccccn12`, the TGI in the assay on SF-539 CNS is above 100 µM; in the assay on HCT-15 colon, above 100 µM; in the assay on SK-MEL-5 melanoma, above 100 µM; in the assay with MCF7 breast, above 100 µM; in the assay on OVCAR-3 ovarian, 69.5 µM; with LOX IMVI melanoma it was above 100 µM. For the same compound, the TGI in the assay with SNB-19 CNS, with SR leukemia, with EKVX NSCLC and with MDA-N was above 100 µM each time.

Turning to `CC(Cl)(CCC(Cl)C(C)(C)Cl)C(=O)CBr` (stereo not given), the TGI with SF-539 CNS was 29.8 µM; in the assay on HCT-15 colon, 21.7 µM; with SK-MEL-5 melanoma it was 21 µM; in the assay on MCF7 breast, 28.5 µM; in the assay with OVCAR-3 ovarian, 29.5 µM; in the assay with LOX IMVI melanoma it was 5.76 µM. For the same compound, the TGI was above 85.5 µM in the assay with SNB-19 CNS, 6.54 µM in the assay with SR leukemia, 30.9 µM in the assay on EKVX NSCLC and 21.3 µM with MDA-N.

Take `COC(=O)[C@@H]1C=CCN1S(=O)(=O)c1ccc(C)cc1`: the TGI in the assay on SF-539 CNS, in the assay on HCT-15 colon, in the assay on SK-MEL-5 melanoma, in the assay on MCF7 breast, in the assay on OVCAR-3 ovarian and in the assay with LOX IMVI melanoma was above 100 µM throughout. For the same compound, the TGI in the assay with SNB-19 CNS was above 100 µM; with SR leukemia, 58.8 µM; with EKVX NSCLC it was above 100 µM; with MDA-N, above 100 µM.

`O=C(NNC(=O)c1ccc(Cl)cc1NC(=O)C12CC3CC(CC(C3)C1)C2)c1ccc(Cl)cc1`: the TGI worked out at 46.6 µM in the assay on SF-539 CNS; 35.9 µM in the assay with HCT-15 colon; 36.5 µM with SK-MEL-5 melanoma; 87.5 µM in the assay with MCF7 breast; 58.3 µM with OVCAR-3 ovarian; 37.7 µM with LOX IMVI melanoma. For the same compound, the TGI came out at 39.4 µM with SNB-19 CNS, 63.8 µM in the assay on SR leukemia, 69.8 µM with EKVX NSCLC and 55.9 µM in the assay on MDA-N.

As to `CC(=O)N1CCOC12N=NC(C)(C)O2` (stereo not given), the TGI in the assay with SF-539 CNS, in the assay on HCT-15 colon, in the assay on SK-MEL-5 melanoma, in the assay on MCF7 breast, with OVCAR-3 ovarian and in the assay with LOX IMVI melanoma was above 100 µM each time. Further, the TGI in the assay on SNB-19 CNS, with SR leukemia, in the assay on EKVX NSCLC and in the assay on MDA-N was above 100 µM each time.

For the compound `C/C(CC(O)(C(F)(F)F)C(F)(F)F)=N\O`, the TGI in the assay with SF-539 CNS, in the assay with HCT-15 colon, with SK-MEL-5 melanoma, with MCF7 breast, in the assay on OVCAR-3 ovarian and in the assay with LOX IMVI melanoma was above 10 µM throughout. For the same compound, the TGI in the assay on SNB-19 CNS, with SR leukemia, in the assay with EKVX NSCLC and with MDA-N was above 10 µM in each case.

For `Nc1ccnc2c1ncn2[C@H]1C[C@H](O)[C@@H](CO)O1`, the TGI in the assay with SF-539 CNS, in the assay on HCT-15 colon, in the assay on SK-MEL-5 melanoma, with MCF7 breast, in the assay on OVCAR-3 ovarian and in the assay on LOX IMVI melanoma was above 100 µM in each case. Also, the TGI in the assay on SNB-19 CNS, in the assay on SR leukemia, in the assay with EKVX NSCLC and in the assay on MDA-N was above 100 µM throughout.

Regarding `O=C(NC1=C(Cl)C(=O)c2ccccc2C1=O)C(=O)c1c(O)c2ccccc2oc1=O`, the TGI with SF-539 CNS is 11.1 µM; in the assay on HCT-15 colon, 13.7 µM; in the assay with SK-MEL-5 melanoma, 1.6 µM; in the assay on MCF7 breast, 8.39 µM; with OVCAR-3 ovarian, 6.79 µM; in the assay on LOX IMVI melanoma it was above 45.9 µM. Moreover, the TGI was found to be 16 µM in the assay on SNB-19 CNS, 80.6 µM in the assay on SR leukemia, 22.4 µM with EKVX NSCLC and 2.7 µM in the assay on MDA-N.

Consider `C=CC(C)(C)/C(=C\CO[Si](C(C)C)(C(C)C)C(C)C)C(=O)N(C)c1ccccc1I`, for which the TGI with SF-539 CNS was determined as 33 µM; with HCT-15 colon, 30.8 µM; with SK-MEL-5 melanoma it was 32.1 µM; in the assay on MCF7 breast, 26.1 µM; with OVCAR-3 ovarian it was 26.2 µM; in the assay with LOX IMVI melanoma it was 27.4 µM. Also, the TGI in the assay with SNB-19 CNS came out at 28.1 µM; with SR leukemia, 27.7 µM; in the assay on EKVX NSCLC it was 32.1 µM; in the assay with MDA-N it was 33.6 µM.

Consider `COc1ccc(/C=C/C(=O)c2cc(CN(C)C)c(O)c(CN(C)C)c2)cc1`, for which the TGI was above 100 µM in the assay on SF-539 CNS; above 100 µM with HCT-15 colon; 32.4 µM in the assay with SK-MEL-5 melanoma; above 100 µM in the assay on MCF7 breast; 56 µM in the assay on OVCAR-3 ovarian; 31.9 µM with LOX IMVI melanoma. Further, the TGI with SNB-19 CNS was above 100 µM; with SR leukemia, above 100 µM; with EKVX NSCLC it was above 100 µM; with MDA-N, 67.1 µM.

`Clc1cc(Cl)nc(Nc2ccc3c(c2)CCC3)n1`: the TGI was above 100 µM in the assay with SF-539 CNS; above 100 µM with HCT-15 colon; 57.5 µM with SK-MEL-5 melanoma; 70.8 µM in the assay on MCF7 breast; above 100 µM with OVCAR-3 ovarian; 91.1 µM in the assay on LOX IMVI melanoma. In addition, the TGI in the assay with SNB-19 CNS was above 100 µM; in the assay on SR leukemia, 77.6 µM; in the assay with EKVX NSCLC, 71.5 µM; in the assay on MDA-N, above 100 µM.
